{"source": "patent US10233182B2", "about": "“Substituted spirocyclic inhibitors of autotaxin” (X-Rx, Inc., priority 2014, dated 2019)", "molecular_target": "Autotaxin (Homo sapiens (Human), UniProt Q13822)", "experiment": "Autotaxin LPC Cascade Assay", "format": "biochemical", "conditions": "Autotaxin 5 nM, LPC 100 μM, choline oxidase/HRP/Ampliflu Red fluorescence read-out, 2% DMSO, RT; read-out: IC50 ATX Activity", "method_in_brief": "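Choline liberated from LPC by autotaxin during 1 h, after a 10-min RT compound preincubation, was converted through choline oxidase/HRP to a fluorescent Ampliflu Red product.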", "data": [{"compound": "CCc1ccc(F)c(C(=O)N[C@@H](C(=O)N2CCC3(CC2)C(=O)N(C)CN3c2ccc3[nH]ncc3c2)C(C)C)c1", "note": "[Example 215, (R)—N-(1-(1-(1H-Indazol-5-yl)-3-methyl-4-oxo-1,3,8-triazaspiro[4.5]decan-8-yl)-3-methyl-1-oxobutan-2-yl)-5-ethyl-2-fluorobenzamide]", "values": [{"measurement": "IC50", "result": "< 500", "unit": "nM"}]}, {"compound": "Cc1ccc(C(F)(F)F)cc1C(=O)N[C@@H](C(=O)N1CCC2(CC1)C(=O)N(C)CN2c1ccc(C(=O)O)cc1)C(C)C", "note": "[Example 161, (R)-4-(3-Methyl-8-(3-methyl-2-(2-methyl-5-(trifluoromethyl)benzamido)butanoyl)-4-oxo-1,3,8-triazaspiro[4.5]decan-1-yl)benzoic Acid]", "values": [{"measurement": "IC50", "result": "500 to 1000", "unit": "nM"}]}, {"compound": "Cc1cccc(C(=O)N[C@@H](C(=O)N2CCC3(CC2)C(=O)N(C)CN3c2ccc(C(=O)O)cc2)C(C)C)c1F", "note": "[Example 150, (R)-4-(8-(2-(2-Fluoro-3-methylbenzamido)-3-methylbutanoyl)-3-methyl-4-oxo-1,3,8-triazaspiro[4.5]decan-1-yl)benzoic Acid]", "values": [{"measurement": "IC50", "result": "< 500", "unit": "nM"}]}, {"compound": "CN1CN(c2ccc(C(=O)O)cc2)C2(CCN(C(=O)[C@H](NC(=O)c3cc(C(F)(F)F)ccc3F)C3CCCC3)CC2)C1=O", "note": "[Example 156, (R)-4-(8-(2-Cyclopentyl-2-(2-fluoro-5-(trifluoromethyl)benzamido)acetyl)-3-methyl-4-oxo-1,3,8-triazaspiro[4.5]decan-1-yl)benzoic Acid]", "values": [{"measurement": "IC50", "result": "< 500", "unit": "nM"}]}, {"compound": "CC(C)[C@@H](NC(=O)c1cc(C(F)(F)F)ccc1F)C(=O)N1CCC2(CC1)C(=O)N(C)C(=O)N2c1ccc2[nH]ccc2c1", "note": "[Example 185, (R)—N-(1-(1-(1H-Indol-5-yl)-3-methyl-2,4-dioxo-1,3,8-triazaspiro[4.5]decan-8-yl)-3-methyl-1-oxobutan-2-yl)-2-fluoro-5-(trifluoromethyl)benzamide]", "values": [{"measurement": "IC50", "result": "< 500", "unit": "nM"}]}, {"compound": "CC(C)[C@@H](NC(=O)c1cc(C(F)(F)F)ccc1F)C(=O)N1CCC2(CC1)C(=O)N(C)C(=O)N2Cc1ccc(F)cc1", "note": "[Example 90, (R)-2-Fluoro-N-(1-(1-(4-fluorobenzyl)-3-methyl-2,4-dioxo-1,3,8-triazaspiro[4.5]decan-8-yl)-3-methyl-1-oxobutan-2-yl)-5-(trifluoromethyl)benzamide]", "values": [{"measurement": "IC50", "result": "< 500", "unit": "nM"}]}, {"compound": "COc1ccc(CN2C(=O)N(C)C(=O)C23CCN(C(=O)[C@H](NC(=O)c2cc(C(F)(F)F)ccc2F)C(C)C)CC3)c(F)c1", "note": "[Example 108, (R)-2-Fluoro-N-(1-(1-(2-fluoro-4-methoxybenzyl)-3-methyl-2,4-dioxo-1,3,8-triazaspiro[4.5]decan-8-yl)-3-methyl-1-oxobutan-2-yl)-5-(trifluoromethyl)benzamide]", "values": [{"measurement": "IC50", "result": "< 500", "unit": "nM"}]}, {"compound": "CC(C)[C@@H](NC(=O)c1cc(C(F)(F)F)ccc1F)C(=O)N1CCC2(CC1)C(=O)N(C)CN2c1ccc(-c2nc[nH]n2)cc1", "note": "[Example 220, (R)—N-(1-(1-(4-(1H-1,2,4-Triazol-3-yl)phenyl)-3-methyl-4-oxo-1,3,8-triazaspiro[4.5]decan-8-yl)-3-methyl-1-oxobutan-2-yl)-2-fluoro-5-(trifluoromethyl)benzamide]", "values": [{"measurement": "IC50", "result": "< 500", "unit": "nM"}]}, {"compound": "CCN1C(=O)N(C)C(=O)C12CCN(C(=O)[C@H](NC(=O)c1cc(C(F)(F)F)ccc1F)C(C)C)CC2", "note": "[Example 123, (R)—N-(1-(1-Ethyl-3-methyl-2,4-dioxo-1,3,8-triazaspiro[4.5]decan-8-yl)-3-methyl-1-oxobutan-2-yl)-2-fluoro-5-(trifluoromethyl)benzamide]", "values": [{"measurement": "IC50", "result": "≥ 1000", "unit": "nM"}]}, {"compound": "CC(C)[C@@H](NC(=O)c1cc(C(F)(F)F)ccc1F)C(=O)N1CCC2(CC1)C(=O)N(C)CN2c1ccc(C(=O)O)cc1", "note": "[Example 149, (R)-4-(8-(2-(2-Fluoro-5-(trifluoromethyl)benzamido)-3-methylbutanoyl)-3-methyl-4-oxo-1,3,8-triazaspiro[4.5]decan-1-yl)benzoic Acid]", "values": [{"measurement": "IC50", "result": "< 500", "unit": "nM"}]}, {"compound": "Cc1cccc(C(=O)N[C@@H](C(=O)N2CCC3(CC2)C(=O)N(C)C(=O)N3c2ccccc2)C2CCCCC2)c1", "note": "[Example 1, (R)—N-(1-Cyclohexyl-2-(3-methyl-2,4-dioxo-1-phenyl-1,3,8-triazaspiro[4.5]decan-8-yl)-2-oxoethyl)-3-methylbenzamide]", "values": [{"measurement": "IC50", "result": "< 500", "unit": "nM"}]}, {"compound": "CC(C)[C@@H](NC(=O)C1CCCCC1)C(=O)N1CCC2(CC1)C(=O)N(C)C(=O)N2c1ccc2[nH]ncc2c1", "note": "[Example 230, (R)—N-(1-(1-(1H-Indazol-5-yl)-3-methyl-2,4-dioxo-1,3,8-triazaspiro[4.5]decan-8-yl)-3-methyl-1-oxobutan-2-yl)cyclohexanecarboxamide]", "values": [{"measurement": "IC50", "result": "≥ 1000", "unit": "nM"}]}, {"compound": "CCc1cccc(C(=O)N[C@@H](C(=O)N2CCC3(CC2)C(=O)N(C)C(=O)N3c2ccccc2)C(C)C)c1F", "note": "[Example 34, (R)-3-Ethyl-2-fluoro-N-(3-methyl-1-(3-methyl-2,4-dioxo-1-phenyl-1,3,8-triazaspiro[4.5]decan-8-yl)-1-oxobutan-2-yl)benzamide]", "values": [{"measurement": "IC50", "result": "≥ 1000", "unit": "nM"}]}, {"compound": "COc1ccc(N2C(=O)N(C)C(=O)C23CCN(C(=O)[C@H](NC(=O)c2cc(C(F)(F)F)ccc2F)C(C)C)CC3)cc1", "note": "[Example 51, (R)-2-Fluoro-N-(1-(1-(4-methoxyphenyl)-3-methyl-2,4-dioxo-1,3,8-triazaspiro[4.5]decan-8-yl)-3-methyl-1-oxobutan-2-yl)-5-(trifluoromethyl)benzamide]", "values": [{"measurement": "IC50", "result": "< 500", "unit": "nM"}]}, {"compound": "CC(C)[C@@H](NC(=O)c1cc(C(F)(F)F)ccc1F)C(=O)N1CCC2(CC1)C(=O)N(C)C(=O)N2C", "note": "[Example 122, (R)—N-(1-(1,3-Dimethyl-2,4-dioxo-1,3,8-triazaspiro[4.5]decan-8-yl)-3-methyl-1-oxobutan-2-yl)-2-fluoro-5-(trifluoromethyl)benzamide]", "values": [{"measurement": "IC50", "result": "≥ 1000", "unit": "nM"}]}, {"compound": "CN1C(=O)N(c2ccc3[nH]ncc3c2)C2(CCN(C(=O)CNC(=O)c3cc(C(F)(F)F)ccc3F)CC2)C1=O", "note": "[Example 70, N-(2-(1-(1H-Indazol-5-yl)-3-methyl-2,4-dioxo-1,3,8-triazaspiro[4.5]decan-8-yl)-2-oxoethyl)-2-fluoro-5-(trifluoromethyl)benzamide]", "values": [{"measurement": "IC50", "result": "≥ 1000", "unit": "nM"}]}, {"compound": "CC(C)[C@@H](NC(=O)c1cc(C(F)(F)F)ccc1F)C(=O)N1CCC2(CC1)C(=O)N(C)C(=O)N2c1ccc(-c2nn[nH]n2)cc1", "note": "[Example 224, (R)—N-(1-(1-(4-(2H-Tetrazol-5-yl)phenyl)-3-methyl-2,4-dioxo-1,3,8-triazaspiro[4.5]decan-8-yl)-3-methyl-1-oxobutan-2-yl)-2-fluoro-5-(trifluoromethyl)benzamide]", "values": [{"measurement": "IC50", "result": "< 500", "unit": "nM"}]}, {"compound": "CC(C)[C@@H](NC(=O)c1cc(C(F)(F)F)ccc1F)C(=O)N1CCC2(CC1)C(=O)N(C)C(=O)N2c1ccc2cn[nH]c2c1", "note": "[Example 53, (R)—N-(1-(1-(1H-Indazol-6-yl)-3-methyl-2,4-dioxo-1,3,8-triazaspiro[4.5]decan-8-yl)-3-methyl-1-oxobutan-2-yl)-2-fluoro-5-(trifluoromethyl)benzamide]", "values": [{"measurement": "IC50", "result": "≥ 1000", "unit": "nM"}]}, {"compound": "CC(C)[C@@H](NC(=O)c1cc(Cl)ccc1Cl)C(=O)N1CCC2(CC1)C(=O)N(C)C(=O)N2c1ccccc1", "note": "[Example 36, (R)-2,5-Dichloro-N-(3-methyl-1-(3-methyl-2,4-dioxo-1-phenyl-1,3,8-triazaspiro[4.5]decan-8-yl)-1-oxobutan-2-yl)benzamide]", "values": [{"measurement": "IC50", "result": "≥ 1000", "unit": "nM"}]}, {"compound": "CC(C)[C@@H](NC(=O)c1cc(C(F)(F)F)ccc1F)C(=O)N1CCC2(CC1)C(=O)N(C)C(=O)N2c1ccc2occc2c1", "note": "[Example 27, (R)-2-Fluoro-N-(3-methyl-1-(3-methyl-2,4-dioxo-1-(5-benzofuran)-1,3,8-triazaspiro[4.5]decan-8-yl)-1-oxobutan-2-yl)-5-(trifluoromethyl)benzamide]", "values": [{"measurement": "IC50", "result": "< 500", "unit": "nM"}]}, {"compound": "CC(=O)N1CC(CN2C(=O)N(C)C(=O)C23CCN(C(=O)[C@H](NC(=O)c2cc(C(F)(F)F)ccc2F)C(C)C)CC3)C1", "note": "[Example 121, (R)—N-(1-(1-((1-Acetylazetidin-3-yl)methyl)-3-methyl-2,4-dioxo-1,3,8-triazaspiro[4.5]decan-8-yl)-3-methyl-1-oxobutan-2-yl)-2-fluoro-5-(trifluoromethyl)benzamide]", "values": [{"measurement": "IC50", "result": "≥ 1000", "unit": "nM"}]}, {"compound": "CC(C)[C@@H](NC(=O)c1cc(C(F)(F)F)ccc1F)C(=O)N1CCC2(CC1)C(=O)N(C)C(=O)N2Cc1ccc2oc(=O)n(C)c2c1", "note": "[Example 105, (R)-2-Fluoro-N-(3-methyl-1-(3-methyl-1-((3-methyl-2-oxo-2,3-dihydrobenzo[d]oxazol-5-yl)methyl)-2,4-dioxo-1,3,8-triazaspiro[4.5]decan-8-yl)-1-oxobutan-2-yl)-5-(trifluoromethyl)benzamide]", "values": [{"measurement": "IC50", "result": "< 500", "unit": "nM"}]}, {"compound": "CC(C)[C@@H](NC(=O)c1cc(C(F)(F)F)ccc1F)C(=O)N1CCC2(CC1)C(=O)N(CC1CC1)CN2c1ccc(C(=O)O)cc1", "note": "[Example 155, (R)-4-(3-(Cyclopropylmethyl)-8-(2-(2-fluoro-5-(trifluoromethyl)benzamido)-3-methylbutanoyl)-4-oxo-1,3,8-triazaspiro[4.5]decan-1-yl)benzoic Acid]", "values": [{"measurement": "IC50", "result": "< 500", "unit": "nM"}]}, {"compound": "CCc1ccc(F)c(C(=O)N[C@@H](C(=O)N2CCC3(CC2)C(=O)N(C)[C@H](C)N3c2ccc(C(=O)O)cc2)C(C)C)c1", "note": "(single isomer, unassigned) [Example 210]", "values": [{"measurement": "IC50", "result": "< 500", "unit": "nM"}]}, {"compound": "Cc1cc(C(=O)N[C@@H](C(=O)N2CCC3(CC2)C(=O)N(C)CN3c2ccccc2)C(C)C)ccn1", "note": "[Example 137, (R)-2-Methyl-N-(3-methyl-1-(3-methyl-4-oxo-1-phenyl-1,3,8-triazaspiro[4.5]decan-8-yl)-1-oxobutan-2-yl)isonicotinamide]", "values": [{"measurement": "IC50", "result": "≥ 1000", "unit": "nM"}]}, {"compound": "CC(C)[C@@H](NC(=O)c1cc(C(F)(F)F)ccc1F)C(=O)N1CCC2(CC1)C(=O)N(C)C(=O)N2Cc1ccc(=O)n(C)c1", "note": "[Example 120, (R)-2-Fluoro-N-(3-methyl-1-(3-methyl-1-((1-methyl-6-oxo-1,6-dihydropyridin-3-yl)methyl)-2,4-dioxo-1,3,8-triazaspiro[4.5]decan-8-yl)-1-oxobutan-2-yl)-5-(trifluoromethyl)benzamide]", "values": [{"measurement": "IC50", "result": "500 to 1000", "unit": "nM"}]}]}
